Holding throughout (type): biochemical
One assay has as its target T1, recombinant human VAP-1 (Homo sapiens, UniProt Q16853).
T1 construct: purchased R&D systems
T1 sequence (Q16853 1-763): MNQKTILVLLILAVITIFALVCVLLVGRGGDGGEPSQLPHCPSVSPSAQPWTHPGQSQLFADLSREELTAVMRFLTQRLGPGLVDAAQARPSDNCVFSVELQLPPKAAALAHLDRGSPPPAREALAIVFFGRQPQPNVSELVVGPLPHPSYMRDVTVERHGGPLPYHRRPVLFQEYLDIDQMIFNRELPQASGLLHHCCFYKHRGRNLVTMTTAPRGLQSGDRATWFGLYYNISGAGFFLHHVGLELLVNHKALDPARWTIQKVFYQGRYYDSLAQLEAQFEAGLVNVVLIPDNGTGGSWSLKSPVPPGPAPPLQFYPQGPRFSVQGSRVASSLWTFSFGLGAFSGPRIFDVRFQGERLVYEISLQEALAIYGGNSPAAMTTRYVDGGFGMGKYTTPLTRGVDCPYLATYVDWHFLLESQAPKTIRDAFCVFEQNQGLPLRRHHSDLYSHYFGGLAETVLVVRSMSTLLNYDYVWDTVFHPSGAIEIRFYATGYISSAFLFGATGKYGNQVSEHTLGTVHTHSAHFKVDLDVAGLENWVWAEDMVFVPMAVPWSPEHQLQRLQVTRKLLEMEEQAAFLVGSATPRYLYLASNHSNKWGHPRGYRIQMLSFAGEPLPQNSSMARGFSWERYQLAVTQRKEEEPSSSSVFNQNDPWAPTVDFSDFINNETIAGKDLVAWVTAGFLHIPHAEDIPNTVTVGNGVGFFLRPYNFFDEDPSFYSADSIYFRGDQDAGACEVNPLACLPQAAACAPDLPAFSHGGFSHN
The assay is described as follows: Activity on recombinant human VAP-1, Amplex Red HRP-coupled hydrogen peroxide assay, benzylamine substrate. Conditions: recombinant human VAP-1, benzylamine substrate, read-out: Inhibitory Activity (IC50, nM) human VAP-1. Put shortly: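 Compounds were preincubated with purified enzyme in 50 mM sodium phosphate pH 7.4 at 37 °C for 30 min, then 200 uM Amplex Red, 1 mM benzylamine and 1 U/mL HRP were added. Resorufin fluorescence (ex 544/em 590 nm) was followed over 1-2 h; IC50 came from 4-parameter fits of signal-rate inhibition.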

Assay [1] deals with T2, recombinant human MAO-A (monoamine oxidase-A) (Homo sapiens, UniProt P21397).
T2 construct: purchased Sigma-Aldrich
T2 sequence (P21397 1-527): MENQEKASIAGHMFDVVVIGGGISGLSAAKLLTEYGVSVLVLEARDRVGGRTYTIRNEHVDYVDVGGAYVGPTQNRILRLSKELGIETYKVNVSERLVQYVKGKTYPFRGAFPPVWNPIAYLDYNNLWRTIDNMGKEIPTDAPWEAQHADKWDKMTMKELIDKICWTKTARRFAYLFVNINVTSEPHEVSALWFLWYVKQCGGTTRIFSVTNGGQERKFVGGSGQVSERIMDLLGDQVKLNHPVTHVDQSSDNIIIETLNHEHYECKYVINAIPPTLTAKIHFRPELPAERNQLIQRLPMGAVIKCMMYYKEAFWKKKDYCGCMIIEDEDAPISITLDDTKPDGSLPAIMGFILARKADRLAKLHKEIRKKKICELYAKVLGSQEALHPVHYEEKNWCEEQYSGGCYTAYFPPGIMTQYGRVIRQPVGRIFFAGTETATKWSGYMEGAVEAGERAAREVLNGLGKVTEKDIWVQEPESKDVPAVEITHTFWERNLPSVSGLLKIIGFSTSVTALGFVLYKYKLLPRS
The assay is described as follows: Activity on recombinant human MAO-A, Amplex Red method, 0.5 mM tyramine substrate. The following applies: read-out: Inhibitory Activity (IC50, nM) MAO-A. Put shortly: (§1)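 8-point, 1:3 dose-response, four-parameter logistic IC50 from reduction in fluorescence rate versus DMSO control. HRP/Amplex Red detection of H2O2 (ex 544, em 590 nm) after 30 min, 37 °C compound–enzyme preincubation in pH 7.4 phosphate buffer. MAO-A substrate: 0.5 mM tyramine; MAO-B: 1 mM benzylamine.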

The target in assay [2] is T3, recombinant human MAO-B (monoamine oxidase-B) (Homo sapiens, UniProt P27338).
T3 construct: purchased Sigma-Aldrich
T3 sequence (P27338 1-520): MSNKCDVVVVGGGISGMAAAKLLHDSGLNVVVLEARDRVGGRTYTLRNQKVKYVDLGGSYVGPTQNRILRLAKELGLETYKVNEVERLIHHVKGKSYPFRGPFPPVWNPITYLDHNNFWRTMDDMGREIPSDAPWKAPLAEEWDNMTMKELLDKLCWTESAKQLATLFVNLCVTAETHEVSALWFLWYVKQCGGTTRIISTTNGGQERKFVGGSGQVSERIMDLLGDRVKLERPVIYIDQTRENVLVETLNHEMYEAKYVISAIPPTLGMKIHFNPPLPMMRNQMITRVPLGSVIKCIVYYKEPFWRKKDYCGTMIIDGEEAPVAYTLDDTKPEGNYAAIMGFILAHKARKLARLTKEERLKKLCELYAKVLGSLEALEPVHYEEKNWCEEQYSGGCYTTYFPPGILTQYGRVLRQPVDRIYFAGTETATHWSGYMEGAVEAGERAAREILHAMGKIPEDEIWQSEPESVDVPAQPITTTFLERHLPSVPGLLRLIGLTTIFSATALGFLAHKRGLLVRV
In words: Activity on recombinant human MAO-B, Amplex Red method, 1 mM benzylamine substrate. Conditions: read-out: Inhibitory Activity (IC50, nM) MAO-B. Put shortly: as §1

Assay [3] has as its target T4, recombinant human DAO (diamine oxidase) (Homo sapiens, UniProt P19801).
T4 construct: purchased R&D systems
T4 sequence (P19801 20-751): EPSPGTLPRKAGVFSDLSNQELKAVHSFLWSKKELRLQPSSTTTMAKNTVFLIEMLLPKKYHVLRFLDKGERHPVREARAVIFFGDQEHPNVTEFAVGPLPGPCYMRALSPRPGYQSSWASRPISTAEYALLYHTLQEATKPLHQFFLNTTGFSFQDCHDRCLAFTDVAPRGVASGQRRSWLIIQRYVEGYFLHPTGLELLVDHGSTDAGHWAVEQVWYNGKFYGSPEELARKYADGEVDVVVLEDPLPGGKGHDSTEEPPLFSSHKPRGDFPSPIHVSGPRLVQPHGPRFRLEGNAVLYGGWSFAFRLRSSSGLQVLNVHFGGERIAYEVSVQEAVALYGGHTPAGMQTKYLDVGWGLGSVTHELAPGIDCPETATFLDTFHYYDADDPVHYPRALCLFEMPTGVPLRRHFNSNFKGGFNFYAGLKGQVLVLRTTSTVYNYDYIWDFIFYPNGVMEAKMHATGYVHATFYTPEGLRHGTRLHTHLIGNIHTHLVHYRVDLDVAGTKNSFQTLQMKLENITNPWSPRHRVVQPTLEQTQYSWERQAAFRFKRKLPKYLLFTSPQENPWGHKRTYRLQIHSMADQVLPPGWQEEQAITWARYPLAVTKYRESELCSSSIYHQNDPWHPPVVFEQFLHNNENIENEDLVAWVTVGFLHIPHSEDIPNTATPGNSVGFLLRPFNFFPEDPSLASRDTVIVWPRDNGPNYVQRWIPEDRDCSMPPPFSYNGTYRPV
The assay is described as follows: Activity on recombinant human DAO, Amplex Red method, 1 mM putrescine substrate. Conditions: recombinant human DAO, read-out: Inhibitory Activity (IC50, nM) DAO. The procedure, abridged:
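Inhibition of recombinant human DAO (diamine oxidase, R&D systems) was assessed with the Amplex Red Hydrogen Peroxide Assay Kit. Hydrogen peroxide produced from 1 mM putrescine was detected through an HRP-coupled reaction that converts Amplex Red into fluorescent resorufin, read at 544 nm excitation and 590 nm emission. IC50 values came from four-parameter logistic fits in GraphPad Prism.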

Setting [4] is: 1 mM putrescine, * = between 10 and 100 nM, ** = between 300 and 1000 nM.

Counter-ions that a name gives are not always drawn. Like-named read-outs stand apart in the source and are kept apart here.

By IC50 is commonly meant the concentration that inhibits the measured activity by half.

In the case of `Cc1cc(-n2cnn(C/C(=C/F)CN)c2=O)ncc1-c1cccc(-c2nc[nH]n2)c1` [Example 158, 2-[(2E)-2-(aminomethyl)-3-fluoroprop-2-en-1-yl]-4-{4-methyl-5-[3-(1H-1,2,4-triazol-3-yl)phenyl]pyridin-2-yl}-2,4-dihydro-3H-1,2,4-triazol-3-one], the IC50 is 0.18 nM at recombinant human VAP-1, 9600 nM in assay [1] (0.5 mM tyramine substrate), 1940 nM in assay [2] (1 mM benzylamine substrate) and under 100 nM in assay [3] (1 mM putrescine substrate).

For `CC(=O)Nc1ccc(-c2cnc(-n3cnn(C/C(=C/F)CN)c3=O)c(C)c2)cc1` [Example 134, N-[4-(6-{1-[(2E)-2-(aminomethyl)-3-fluoroprop-2-en-1-yl]-5-oxo-1,5-dihydro-4H-1,2,4-triazol-4-yl}-5-methylpyridin-3-yl)phenyl]acetamide hydrochloride], the IC50 on recombinant human VAP-1 (30 min preincubation at 37° C.) was 0.55 nM; in assay [1] (0.5 mM tyramine), over 100000 nM; in assay [2] (1 mM benzylamine), over 10000 nM; in assay [3] (setting [4]), 1200 nM.

Turning to `CN(C)c1ncc(-c2cccc(-n3cnn(C/C(=C/F)CN)c3=O)n2)cc1F` [Example 191, 2-[(2E)-2-(aminomethyl)-3-fluoroprop-2-en-1-yl]-4-[6′-(dimethylamino)-5′-fluoro-2,3′-bipyridin-6-yl]-2,4-dihydro-3H-1,2,4-triazol-3-one hydrochloride], the IC50 on recombinant human VAP-1 was 0.5 nM; in assay [1] (0.5 mM tyramine substrate), over 100000 nM; in assay [2] (1 mM benzylamine substrate), 1200 nM; in assay [3] (1 mM putrescine substrate) it was 19 nM.

As for `Cc1ccc(-c2ccc3c(c2)NC(=O)CO3)nc1-n1cnn(C/C(=C/F)CN)c1=O` [Example 216, 6-(6-{1-[(2E)-2-(aminomethyl)-3-fluoroprop-2-en-1-yl]-5-oxo-1,5-dihydro-4H-1,2,4-triazol-4-yl}-5-methylpyridin-2-yl)-2H-1,4-benzoxazin-3 (4H)-one hydrochloride], the IC50 at recombinant human VAP-1 is 88 nM; in assay [1] (0.5 mM tyramine substrate), over 100000 nM; in assay [2] (1 mM benzylamine substrate) it was over 10000 nM; in assay [3] (1 mM putrescine substrate), 4200 nM.

As to `Cc1cc(-c2cccc(-n3cnn(C/C(=C/F)CN)c3=O)c2)cn(C)c1=O` [Example 89, 5-(3-{1-[(2E)-2-(aminomethyl)-3-fluoroprop-2-en-1-yl]-5-oxo-1,5-dihydro-4H-1,2,4-triazol-4-yl}phenyl)-1,3-dimethylpyridin-2(1H)-one hydrochloride], the IC50 on recombinant human VAP-1 (30 min preincubation at 37° C.) is 0.6 nM; in assay [1] (0.5 mM tyramine), over 100000 nM; in assay [2] (1 mM benzylamine), over 10000 nM; in assay [3] (setting [4]) it was 4.7 nM.

As for `CC(=O)Nc1ccc(-c2cccc(-c3cccc(-n4cnn(C/C(=C/F)CN)c4=O)c3)c2)cc1` [Example 69, N-(3″-{1-[(2E)-2-(aminomethyl)-3-fluoroprop-2-en-1-yl]-5-oxo-1,5-dihydro-4H-1,2,4-triazol-4-yl}-1,1′:3′,1″-terphenyl-4-yl)acetamide hydrochloride], the IC50 came to 0.63 nM on recombinant human VAP-1 (30 min preincubation at 37° C.), 4910 nM in assay [1] (0.5 mM tyramine), 1100 nM in assay [2] (1 mM benzylamine) and 11 nM in assay [3] (setting [4]).

For `CC(C)Sc1ccc(-c2cccc(-n3cnn(C/C(=C/F)CN)c3=O)c2)cc1` [Example 52, 2-[(2E)-2-(aminomethyl)-3-fluoroprop-2-en-1-yl]-4-[4′-(propan-2-ylsulfanyl)biphenyl-3-yl]-2,4-dihydro-3H-1,2,4-triazol-3-one hydrochloride], the IC50 at recombinant human VAP-1 (30 min preincubation at 37° C.) is 1.2 nM; in assay [1] (0.5 mM tyramine), 50000 nM; in assay [2] (1 mM benzylamine), 3600 nM; in assay [3] (setting [4]), 24 nM.

Take `NC/C(=C\F)Cn1ncn(-c2cccc(-c3ccc4c(c3)OCO4)n2)c1=O` [Example 193, 2-[(2E)-2-(aminomethyl)-3-fluoroprop-2-en-1-yl]-4-[6-(1,3-benzodioxol-5-yl)pyridin-2-yl]-2,4-dihydro-3H-1,2,4-triazol-3-one]: the IC50 at recombinant human VAP-1 was 2.5 nM; in assay [1] (0.5 mM tyramine substrate), over 100000 nM; in assay [2] (1 mM benzylamine substrate), 1160 nM; in assay [3] (1 mM putrescine substrate), 38 nM.

Consider `NC/C(=C/F)Cn1ncn(-c2ncc(Br)cc2F)c1=O` [Example 35, 2-[(2Z)-2-(aminomethyl)-3-fluoroprop-2-en-1-yl]-4-(5-bromo-3-fluoropyridin-2-yl)-2,4-dihydro-3H-1,2,4-triazol-3-one hydrochloride], for which the IC50 at recombinant human VAP-1 (30 min preincubation at 37° C.) stood at 6.6 nM; in assay [1] (0.5 mM tyramine), 1500 nM; in assay [2] (1 mM benzylamine) it was 503 nM; in assay [3] (setting [4]) it was 14 nM.

With `NC/C(=C\F)Cn1ncn(-c2cccc(-c3cccc(-c4ccc5c(c4)OCO5)c3)c2)c1=O` [Example 71, 2-[(2E)-2-(aminomethyl)-3-fluoroprop-2-en-1-yl]-4-[3′-(1,3-benzodioxol-5-yl)biphenyl-3-yl]-2,4-dihydro-3H-1,2,4-triazol-3-one hydrochloride], the IC50 on recombinant human VAP-1 (30 min preincubation at 37° C.) was 1 nM; in assay [1] (0.5 mM tyramine), 17300 nM; in assay [2] (1 mM benzylamine), 240 nM; in assay [3] (setting [4]), under 30 nM.

These data come from US11492335B2, “Aryl or heteroaryl triazolone derivatives or salts thereof, or pharmaceutical compositions comprising the same” (YUHAN CORPORATION, priority 2018, dated 2022).
